Measured values from PubChem BioAssay (NCI).
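Interpolation was linear, between the two tested concentrations surrounding the appropriate level; five concentrations were tested over 48 hours in 96-well plates. Abbreviation: GI50, concentration required for 50% inhibition of growth. TGI denotes the concentration required for complete inhibition of growth.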

Assays:
Assay in all cases: DTP human tumour cell line panel, 48 h
[1] = tested on: SF-539 CNS
[2] = tested on: IGROV1 ovarian
[3] = tested on: UACC-62 melanoma
[4] = tested on: COLO 205 colon
[5] = tested on: SR leukemia
[6] = tested on: NCI-H460 lung
[7] = tested on: EKVX NSCLC
[8] = tested on: MDA-MB-231 breast
[9] = tested on: RXF 393 renal
[10] = tested on: MCF7 breast
[11] = tested on: NCI/ADR-RES ovarian
[12] = tested on: HOP-92 NSCLC
[13] = tested on: A498 renal
[14] = tested on: OVCAR-3 ovarian
[15] = tested on: SK-MEL-5 melanoma
[16] = tested on: 786-0 renal
[17] = tested on: RPMI-8226 leukemia
[18] = tested on: HCT-116 colon
[19] = tested on: UACC-257 melanoma
[20] = tested on: HCT-15 colon
[21] = tested on: SNB-75 CNS
[22] = tested on: NCI-H226 lung
[23] = tested on: OVCAR-8 ovarian
[24] = tested on: M14 melanoma
[25] = tested on: HS 578T breast
[26] = tested on: ACHN renal
[27] = tested on: SN12C renal
[28] = tested on: KM12 colon
[29] = tested on: CCRF-CEM leukemia
[30] = tested on: LOX IMVI melanoma
[31] = tested on: SW-620 colon
[32] = tested on: MOLT-4 leukemia
[33] = tested on: DU-145 prostate
[34] = tested on: SK-MEL-28 melanoma
[35] = tested on: HCC-2998 colon
[36] = tested on: OVCAR-4 ovarian
[37] = tested on: MALME-3M melanoma
[38] = tested on: T-47D breast
[39] = tested on: BT-549 breast
[40] = tested on: SK-MEL-2 melanoma
[41] = tested on: TK-10 renal
[42] = tested on: HOP-62 NSCLC
[43] = tested on: UO-31 renal
[44] = tested on: HT29 colon
[45] = tested on: A549 NSCLC
[46] = tested on: SF-268 CNS
[47] = tested on: SNB-19 CNS
[48] = tested on: SF-295 CNS
[49] = tested on: SK-OV-3 ovarian
[50] = tested on: NCI-H522 lung
[51] = tested on: PC-3 prostate
[52] = tested on: HL-60(TB) leukemia
[53] = tested on: CAKI-1 renal
[54] = tested on: U251 CNS
[55] = tested on: MDA-MB-435
[56] = tested on: OVCAR-5 ovarian
[57] = tested on: NCI-H23 lung
[58] = tested on: K-562 leukemia

CC1=NN(c2cccc(Cl)c2)C(=O)/C1=C\C=C\c1ccccc1
GI50 [1]: 2500 nM | TGI [1]: 6120 nM | GI50 [2]: 1670 nM | TGI [2]: 4230 nM | GI50 [3]: 1760 nM | TGI [3]: 3870 nM | GI50 [4]: 2360 nM | TGI [4]: 4940 nM | GI50 [5]: 2360 nM | TGI [5]: > 100000 nM | GI50 [6]: 1670 nM | TGI [6]: 3280 nM | GI50 [7]: 3040 nM | TGI [7]: > 100000 nM | GI50 [8]: 2270 nM | TGI [8]: 7470 nM | GI50 [9]: 2120 nM | TGI [9]: 3920 nM | GI50 [10]: 1120 nM | TGI [10]: 18800 nM | GI50 [11]: 3400 nM | TGI [11]: > 100000 nM | GI50 [12]: 4630 nM | TGI [12]: 43000 nM | GI50 [13]: 17700 nM | TGI [13]: > 100000 nM | GI50 [14]: 2180 nM | TGI [14]: 4400 nM | GI50 [15]: 2270 nM | TGI [15]: 5760 nM | GI50 [16]: 2160 nM | TGI [16]: 4650 nM | GI50 [17]: 2910 nM | TGI [17]: 14300 nM | GI50 [18]: 1560 nM | TGI [18]: 3090 nM | GI50 [19]: 2130 nM | TGI [19]: 7260 nM | GI50 [20]: 2270 nM | TGI [20]: 5680 nM | GI50 [21]: 7120 nM | TGI [21]: > 100000 nM | GI50 [22]: 2680 nM | TGI [22]: 7620 nM | GI50 [23]: 2630 nM | TGI [23]: 9440 nM | GI50 [24]: 1700 nM | TGI [24]: 3570 nM | GI50 [25]: 1650 nM | TGI [25]: 9610 nM | GI50 [26]: 1790 nM | TGI [26]: 3340 nM | GI50 [27]: 2440 nM | TGI [27]: 7530 nM | GI50 [28]: 1640 nM | TGI [28]: 3100 nM | GI50 [29]: 3140 nM | TGI [29]: > 100000 nM | GI50 [30]: 1480 nM | TGI [30]: 3150 nM | GI50 [31]: 1740 nM | TGI [31]: 3440 nM | GI50 [32]: 3170 nM | TGI [32]: > 100000 nM | GI50 [33]: 2910 nM | TGI [33]: 12100 nM | GI50 [34]: 2090 nM | TGI [34]: 4300 nM | GI50 [35]: 1910 nM | TGI [35]: 3450 nM | GI50 [36]: 3370 nM | TGI [36]: > 100000 nM | GI50 [37]: 2760 nM | TGI [37]: 9190 nM | GI50 [38]: 2290 nM | TGI [38]: 39500 nM | GI50 [39]: 1640 nM | TGI [39]: 3170 nM | GI50 [40]: 3850 nM | TGI [40]: 16700 nM | GI50 [41]: 3170 nM | TGI [41]: 9050 nM | GI50 [42]: 3180 nM | TGI [42]: 11100 nM | GI50 [43]: 1620 nM | TGI [43]: 3490 nM | GI50 [44]: 2980 nM | TGI [44]: 7400 nM | GI50 [45]: 16400 nM | TGI [45]: > 100000 nM | GI50 [46]: 2360 nM | TGI [46]: 6910 nM | GI50 [47]: 5670 nM | TGI [47]: > 100000 nM | GI50 [48]: 3170 nM | TGI [48]: 67800 nM | GI50 [49]: 3210 nM | TGI [49]: 9930 nM | GI50 [50]: 2630 nM | TGI [50]: 6840 nM | GI50 [51]: 2930 nM | TGI [51]: > 100000 nM | GI50 [52]: 3140 nM | TGI [52]: > 100000 nM | GI50 [53]: 1890 nM | TGI [53]: 4490 nM | GI50 [54]: 1780 nM | TGI [54]: 4420 nM | GI50 [55]: 2500 nM | TGI [55]: 7370 nM | GI50 [56]: 2810 nM | TGI [56]: 7830 nM | GI50 [57]: 2320 nM | TGI [57]: 6130 nM | GI50 [58]: 2880 nM | TGI [58]: > 100000 nM

C[C@H]1COCCN1c1nc(-c2cnc(N)cc2C(F)F)nc(N2CCOCC2)n1
GI50 [1]: 235 nM | TGI [1]: 1450 nM | GI50 [2]: 36.4 nM | TGI [2]: 285 nM | GI50 [3]: 79.4 nM | TGI [3]: 401 nM | GI50 [4]: 179 nM | TGI [4]: 19800 nM | GI50 [5]: 275 nM | TGI [5]: 29100 nM | GI50 [6]: 113 nM | TGI [6]: > 100000 nM | GI50 [7]: 178 nM | TGI [7]: 2000 nM | GI50 [8]: 177 nM | TGI [8]: 48500 nM | GI50 [9]: 129 nM | TGI [9]: 617 nM | GI50 [10]: 48.7 nM | TGI [10]: > 100000 nM | GI50 [11]: 253 nM | TGI [11]: > 21700 nM | GI50 [12]: 19.7 nM | TGI [12]: 197 nM | GI50 [13]: 30.1 nM | TGI [13]: 164 nM | GI50 [14]: 224 nM | TGI [14]: > 100000 nM | GI50 [15]: 150 nM | TGI [15]: 651 nM | GI50 [16]: 181 nM | TGI [16]: 5150 nM | GI50 [17]: 134 nM | TGI [17]: 4910 nM | GI50 [18]: 233 nM | TGI [18]: > 100000 nM | GI50 [19]: 166 nM | TGI [19]: 1580 nM | GI50 [20]: 183 nM | TGI [20]: > 100000 nM | GI50 [21]: 35.5 nM | TGI [21]: 354 nM | GI50 [22]: 127 nM | TGI [22]: > 100000 nM | GI50 [23]: 291 nM | TGI [23]: > 100000 nM | GI50 [24]: 129 nM | TGI [24]: 29700 nM | GI50 [25]: 100 nM | TGI [25]: 551 nM | GI50 [26]: 207 nM | TGI [26]: > 100000 nM | GI50 [27]: 159 nM | TGI [27]: > 100000 nM | GI50 [28]: 318 nM | TGI [28]: 41000 nM | GI50 [29]: 285 nM | TGI [29]: > 50300 nM | GI50 [30]: 152 nM | TGI [30]: 4440 nM | GI50 [31]: 258 nM | TGI [31]: > 100000 nM | GI50 [32]: 225 nM | TGI [32]: 33000 nM | GI50 [33]: 285 nM | TGI [33]: > 100000 nM | GI50 [34]: 115 nM | TGI [34]: 994 nM | GI50 [35]: 186 nM | TGI [35]: 15100 nM | GI50 [36]: 174 nM | GI50 [37]: 104 nM | TGI [37]: 721 nM | GI50 [38]: 26.9 nM | TGI [38]: 181 nM | GI50 [39]: 98 nM | TGI [39]: 818 nM | GI50 [40]: 232 nM | TGI [40]: 1120 nM | GI50 [41]: 86.6 nM | TGI [41]: 815 nM | GI50 [42]: 414 nM | TGI [42]: > 100000 nM | GI50 [43]: 47 nM | TGI [43]: > 100000 nM | GI50 [44]: 176 nM | TGI [44]: > 100000 nM | GI50 [45]: 199 nM | TGI [45]: > 100000 nM | GI50 [46]: 265 nM | TGI [46]: > 100000 nM | GI50 [47]: 300 nM | TGI [47]: 13800 nM | GI50 [48]: 119 nM | TGI [48]: 645 nM | GI50 [49]: 61.4 nM | TGI [49]: 412 nM | GI50 [50]: 148 nM | TGI [50]: > 60800 nM | GI50 [51]: 98.5 nM | TGI [51]: > 100000 nM | GI50 [52]: 171 nM | TGI [52]: 97800 nM | GI50 [53]: 102 nM | GI50 [54]: 368 nM | TGI [54]: > 100000 nM | GI50 [55]: 182 nM | TGI [55]: 5270 nM | GI50 [56]: 188 nM | TGI [56]: > 100000 nM | GI50 [57]: 274 nM | TGI [57]: > 100000 nM | GI50 [58]: 692 nM | TGI [58]: > 100000 nM
